From patent publication US20240197695A1, “COMPOUND FOR PREVENTION OR TREATMENT OF KIDNEY DISEASE” (ONCOCROSS CO.,LTD, priority 2021, published 2024)
Like-named read-outs stand apart in the source and are kept apart here. Marks after values point to notes of the source that are not given here.

What was measured:
Type in all cases: in vivo, mice (C57BL/6)
[1] = test system: diabetic nephrosis animal models; assay: Blood insulin (Mouse Insulin ELISA KIT) and HOMA-IR; conditions: for HOMA-IR, Mean / Insulin, Mean: after observation period, fasted
Procedure: (§1) STZ (Sigma-aldrich, S0130, 40 mg/kg b.w., in 0.1 M citrate buffer pH 4.5) was intraperitoneally administered to 9-week-old male mice (C57BL/6) once/1 day for 5 days to perform a first disease induction. After 7 weeks of the first induction, a second induction was performed using the same method as the first induction. For 5 days of an STZ administration period for the first induction, 10% sucrose was administered as drinking water. In addition, after 14 days of the second administration, blood glucose levels were confirmed to confirm the induction rate, and the induced animals were separated into groups. Experimental substances (R)-4-{(R)-1-[7-(3,4,5-trimethoxy-phenyl)-[1,6] naphthyridin-5-yloxy]-ethyl}pyrrolidin-2-one (BI-1002494) and cromolyn (OC-101) were administered orally into the stomach at 10 mL/kg using an administration syringe (sonde) before 16:00 daily for 12 weeks at a frequency of 7 days/week at doses shown in Table 1 below, and dexamethasone was orally administered as a positive control substance.
(§2) After the observation period for mice of each group in Example 1 was terminated, all surviving animals were fasted in the same manner as when measuring blood glucose levels, and then anesthetized by inhaling isoflurane, and blood was collected from the abdominal vena cava through laparotomy. After the blood collection was completed, the veins and arteries were cut under anesthesia and exsanguinated. The collected blood was left at room temperature for 30 minutes or more and then centrifuged at 3,000 rpm for 20 minutes. Thereafter, glucose, Blood urea nitrogen (BUN), and creatinine were analyzed using an automated blood biochemistry analyzer (Hitachi 3100, Hitachi Co. Ltd., Japan). Indoxyl sulfate (a substance that was mainly produced in the intestines to cause renal injury, and a substance that caused end-stage renal failure by advancing renal function damage in patients with renal failure during hemodialysis) was analyzed using LC MS/MS. In addition, blood insulin was analyzed according to a method represented by a commercial Mouse Insulin ELISA KIT (#AKRIN-011T, Sibayagi Co. Ltd., Japan).

[2] = test system: diabetic nephrosis animal models; assay: Changes in blood glucose levels (tail vein, blood glucose level meter)
Procedure: as §1
Before disease induction, excluding week 9 of administration of experimental substances to mice in each group of Example 1 above, after 2 weeks after the first induction (based on a first administration date), and after 6 weeks and 2 weeks of the second induction (based on the first administration date), blood was collected from the tail vein and blood glucose levels were measured using a blood glucose level meter (Accu-Check, Roche), and fasting was performed for 4 hours from 9:30 a.m. to 1:30.

[3] = test system: diabetic nephrosis animal models; assay: Histopathological change (H&E) in liver, kidney, pancreas; conditions: count in group of 10 animals
Procedure: as §1
At the end of the observation period, the mice in each group of Example 1 were confirmed to be dead, and the liver, kidney, and pancreas were extracted and fixed with 10% neutral buffered formalin (NBF) in at least 20 times the tissue volume. The fixed tissue was sectioned to a thickness of approximately 4 mm and then produced into a paraffin block through general tissue processing and embedding processes. Thereafter, the tissue was sectioned to a thickness of 4 μm using a rotary microtome, and then H&E staining was performed, and histopathological changes were observed.

[4] = Body weights of mice in diabetic nephrosis model
Procedure: as §1

[5] = Feed intake of mice in diabetic nephrosis model; parameters: Feed intake, Mean: unit not given here
Procedure: as §1

[6] = Drinking water intake of mice in diabetic nephrosis model; parameters: unit not given here
Procedure: as §1

[7] = test system: diabetic nephrosis animal models; conditions: for CRE, Mean / GLU, Mean / T-CHO, Mean: after observation period, fasted
Procedure: as §1, §2

[8] = test system: diabetic nephrosis animal models; assay: Blood indoxyl sulfate by LC MS/MS; conditions: after observation period, fasted
Procedure: as §1, §2

O=C(O)c1cc(=O)c2c(OCC(O)COc3cccc4oc(C(=O)O)cc(=O)c34)cccc2o1 [OC-101, cromolyn, reference compound]
HOMA-IR compared to disease control group ([1]; 50 mg/kg administered group): decreased statistically significantly | HOMA-IR, Mean ([1]; 50 mg/kg/day oral): 8.8^# | Insulin, Mean ([1]; 50 mg/kg/day oral): 0.5 ng/mL | Blood glucose level, Mean ([2]; 50 mg/kg/day oral, week 0, 4 h fasting, in mg/dL (unit assumed)): 300.9 | Blood glucose level, Mean ([2]; 50 mg/kg/day oral, week 2, 4 h fasting, in mg/dL (unit assumed)): 336.6 | Blood glucose level, Mean ([2]; 50 mg/kg/day oral, week 4, 4 h fasting): 271.1^# | Blood glucose level, Mean ([2]; 50 mg/kg/day oral, week 6, 4 h fasting): 295.5^# | Blood glucose level, Mean ([2]; 50 mg/kg/day oral, week 8, 4 h fasting): 259.9^# | Blood glucose level, Mean ([2]; 50 mg/kg/day oral, week 10, 4 h fasting): 247.8^# | Kidney: Medullar apoptosis ([3]; G6/G7, 50 mg/kg oral): 0 | Kidney: Medullar mineralization ([3]; G6/G7, 50 mg/kg oral): 1 | Kidney: NHL ([3]; G6/G7, 50 mg/kg oral): 8 | Kidney: bowman's capsule hyperplasia ([3]; G6/G7, 50 mg/kg oral): 1 | Kidney: pappillary mineralization ([3]; G6/G7, 50 mg/kg oral): 0 | Liver: Apoptosis ([3]; G6/G7, 50 mg/kg oral): 2 | Liver: Cytoplasmic glycogen ([3]; G6/G7, 50 mg/kg oral): 0 | Liver: Eosinophlic focus of cellular alteration ([3]; G6/G7, 50 mg/kg oral): 1 | Liver: Mononuclear cell infiltrate ([3]; G6/G7, 50 mg/kg oral): 3 | Liver: NHL ([3]; G6/G7, 50 mg/kg oral): 5 | Pancrease: Apoptosis ([3]; G6/G7, 50 mg/kg oral): 0 | Pancrease: NHL ([3]; G6/G7, 50 mg/kg oral): 6 | Pancrease: islet degeneration ([3]; G6/G7, 50 mg/kg oral): 2 | Pancrease: islet hypertrophy ([3]; G6/G7, 50 mg/kg oral): 2 | Pancrease: islet, mononuclear cell infillitrate ([3]; G6/G7, 50 mg/kg oral): 1 | Body weight, Mean ([4]; 50 mg/kg/day oral, week 0): 23.9 g | Body weight, Mean ([4]; 50 mg/kg/day oral, week 1): 23.4 g | Body weight, Mean ([4]; 50 mg/kg/day oral, week 2): 23.5 g | Body weight, Mean ([4]; 50 mg/kg/day oral, week 3): 23.3 g | Body weight, Mean ([4]; 50 mg/kg/day oral, week 4): 23.5 g | Body weight, Mean ([4]; 50 mg/kg/day oral, week 5): 23.4 g | Body weight, Mean ([4]; 50 mg/kg/day oral, week 6): 23.5 g | Body weight, Mean ([4]; 50 mg/kg/day oral, week 7): 23.4 g | Body weight, Mean ([4]; 50 mg/kg/day oral, week 8): 23.2 g | Body weight, Mean ([4]; 50 mg/kg/day oral, week 10): 23 g | Feed intake, Mean ([5]; 50 mg/kg/day oral, week 0): 6.23 | Feed intake, Mean ([5]; 50 mg/kg/day oral, week 1): 5.98 | Feed intake, Mean ([5]; 50 mg/kg/day oral, week 2): 6.35 | Feed intake, Mean ([5]; 50 mg/kg/day oral, week 3): 5.47 | Feed intake, Mean ([5]; 50 mg/kg/day oral, week 4): 4.28 | Feed intake, Mean ([5]; 50 mg/kg/day oral, week 5): 4.51 | Feed intake, Mean ([5]; 50 mg/kg/day oral, week 6): 4.29 | Feed intake, Mean ([5]; 50 mg/kg/day oral, week 7): 4.41 | Feed intake, Mean ([5]; 50 mg/kg/day oral, week 8): 4.37 | Feed intake, Mean ([5]; 50 mg/kg/day oral, week 9): 4.51 | Feed intake, Mean ([5]; 50 mg/kg/day oral, week 10): 4.28 | Drinking water intake, Mean ([6]; 50 mg/kg/day oral, week 0): 6.78 | Drinking water intake, Mean ([6]; 50 mg/kg/day oral, week 1): 8.11 | Drinking water intake, Mean ([6]; 50 mg/kg/day oral, week 2): 7.68 | Drinking water intake, Mean ([6]; 50 mg/kg/day oral, week 3): 6.99 | Drinking water intake, Mean ([6]; 50 mg/kg/day oral, week 4): 7.23 | Drinking water intake, Mean ([6]; 50 mg/kg/day oral, week 5): 6.78 | Drinking water intake, Mean ([6]; 50 mg/kg/day oral, week 6): 7.80 | Drinking water intake, Mean ([6]; 50 mg/kg/day oral, week 7): 7.06 | Drinking water intake, Mean ([6]; 50 mg/kg/day oral, week 8): 7.17 | Drinking water intake, Mean ([6]; 50 mg/kg/day oral, week 9): 7.09 | Drinking water intake, Mean ([6]; 50 mg/kg/day oral, week 10): 6.76 | GLU compared to disease control group ([7]; 50 mg/kg administered group): decreased statistically significantly | CRE, Mean ([7]; 50 mg/kg/day oral): 0.1 mg/dL | GLU, Mean ([7]; 50 mg/kg/day oral): 282.6^# mg/dL | T-CHO, Mean ([7]; 50 mg/kg/day oral): 139.3 mg/dL | Indoxyl sulfate, Mean ([8]; 50 mg/kg/day oral): 2.0 µg/mL

C[C@@H]1C[C@H]2[C@@H]3CCC4=CC(=O)C=C[C@]4(C)[C@@]3(F)[C@@H](O)C[C@]2(C)[C@@]1(O)C(=O)CO [Dexa, dexamethasone, reference compound]
HOMA-IR, Mean ([1]; 2 mg/kg/day oral): 11.2^# | Insulin, Mean ([1]; 2 mg/kg/day oral): 0.6 ng/mL | Blood glucose level, Mean ([2]; 2 mg/kg/day oral, week 0, 4 h fasting, in mg/dL (unit assumed)): 307.1 | Blood glucose level, Mean ([2]; 2 mg/kg/day oral, week 2, 4 h fasting, in mg/dL (unit assumed)): 309.1 | Blood glucose level, Mean ([2]; 2 mg/kg/day oral, week 4, 4 h fasting, in mg/dL (unit assumed)): 329.2 | Blood glucose level, Mean ([2]; 2 mg/kg/day oral, week 6, 4 h fasting, in mg/dL (unit assumed)): 336.9 | Blood glucose level, Mean ([2]; 2 mg/kg/day oral, week 8, 4 h fasting): 286.1^# | Blood glucose level, Mean ([2]; 2 mg/kg/day oral, week 10, 4 h fasting, in mg/dL (unit assumed)): 331.4 | Kidney: Medullar apoptosis ([3]; G3, 2 mg/kg oral): 1 | Kidney: Medullar mineralization ([3]; G3, 2 mg/kg oral): 1 | Kidney: NHL ([3]; G3, 2 mg/kg oral): 6 | Kidney: bowman's capsule hyperplasia ([3]; G3, 2 mg/kg oral): 2 | Kidney: pappillary mineralization ([3]; G3, 2 mg/kg oral): 0 | Liver: Apoptosis ([3]; G3, 2 mg/kg oral): 4 | Liver: Cytoplasmic glycogen ([3]; G3, 2 mg/kg oral): 0 | Liver: Eosinophlic focus of cellular alteration ([3]; G3, 2 mg/kg oral): 3 | Liver: Mononuclear cell infiltrate ([3]; G3, 2 mg/kg oral): 0 | Liver: NHL ([3]; G3, 2 mg/kg oral): 5 | Pancrease: Apoptosis ([3]; G3, 2 mg/kg oral): 0 | Pancrease: NHL ([3]; G3, 2 mg/kg oral): 8 | Pancrease: islet degeneration ([3]; G3, 2 mg/kg oral): 1 | Pancrease: islet hypertrophy ([3]; G3, 2 mg/kg oral): 0 | Pancrease: islet, mononuclear cell infillitrate ([3]; G3, 2 mg/kg oral): 1 | Body weight, Mean ([4]; 2 mg/kg/day oral, week 0): 24 g | Body weight, Mean ([4]; 2 mg/kg/day oral, week 1): 23.5 g | Body weight, Mean ([4]; 2 mg/kg/day oral, week 2): 23.6 g | Body weight, Mean ([4]; 2 mg/kg/day oral, week 3): 23.6 g | Body weight, Mean ([4]; 2 mg/kg/day oral, week 4): 23.6 g | Body weight, Mean ([4]; 2 mg/kg/day oral, week 5): 23.7 g | Body weight, Mean ([4]; 2 mg/kg/day oral, week 6): 23.6 g | Body weight, Mean ([4]; 2 mg/kg/day oral, week 7): 23.8 g | Body weight, Mean ([4]; 2 mg/kg/day oral, week 8): 23.6 g | Body weight, Mean ([4]; 2 mg/kg/day oral, week 10): 23.3 g | Feed intake, Mean ([5]; 2 mg/kg/day oral, week 0): 6.71 | Feed intake, Mean ([5]; 2 mg/kg/day oral, week 1): 5.48 | Feed intake, Mean ([5]; 2 mg/kg/day oral, week 2): 5.80 | Feed intake, Mean ([5]; 2 mg/kg/day oral, week 3): 5.84 | Feed intake, Mean ([5]; 2 mg/kg/day oral, week 4): 5.89 | Feed intake, Mean ([5]; 2 mg/kg/day oral, week 5): 5.65 | Feed intake, Mean ([5]; 2 mg/kg/day oral, week 6): 5.30 | Feed intake, Mean ([5]; 2 mg/kg/day oral, week 7): 5.56 | Feed intake, Mean ([5]; 2 mg/kg/day oral, week 8): 5.21 | Feed intake, Mean ([5]; 2 mg/kg/day oral, week 9): 5.29 | Feed intake, Mean ([5]; 2 mg/kg/day oral, week 10): 5.64 | Drinking water intake, Mean ([6]; 2 mg/kg/day oral, week 0): 7.07 | Drinking water intake, Mean ([6]; 2 mg/kg/day oral, week 1): 7.73 | Drinking water intake, Mean ([6]; 2 mg/kg/day oral, week 2): 7.06 | Drinking water intake, Mean ([6]; 2 mg/kg/day oral, week 3): 7.69 | Drinking water intake, Mean ([6]; 2 mg/kg/day oral, week 4): 7.69 | Drinking water intake, Mean ([6]; 2 mg/kg/day oral, week 5): 7.10 | Drinking water intake, Mean ([6]; 2 mg/kg/day oral, week 6): 7.35 | Drinking water intake, Mean ([6]; 2 mg/kg/day oral, week 7): 7.19 | Drinking water intake, Mean ([6]; 2 mg/kg/day oral, week 8): 7.83 | Drinking water intake, Mean ([6]; 2 mg/kg/day oral, week 9): 7.45 | Drinking water intake, Mean ([6]; 2 mg/kg/day oral, week 10): 7.19 | CRE, Mean ([7]; 2 mg/kg/day oral): 0.1 mg/dL | GLU, Mean ([7]; 2 mg/kg/day oral): 335.6^# mg/dL | T-CHO, Mean ([7]; 2 mg/kg/day oral): 139.0 mg/dL | Indoxyl sulfate, Mean ([8]; 2 mg/kg/day oral): 2.5^# μg/mL
